Literature values in patent US6638954B2, “Δ2-1,2,3-TRIAZOLINE ANTICONVULSANTS AND THEIR ACTIVE METABOLITE ANALOGUES, THE AMINOALKYLPYRIDINES, ARE EXCITATORY AMINO ACID ANTAGONISTS AND ANTIISCHEMIC AGENTS, USEFUL IN THE TREATMENT OF CEREBRAL ISCHEMIA RESULTING FROM STROKE” (K and K Biosciences, Inc., priority 2000, dated 2003).

Columns and labels:
[1] = test system: amygdala-kindled rats; conditions: non-sedative, non-neurotoxic doses
[2] = test system: entorhinal-kindled rats; conditions: non-sedative, non-neurotoxic doses
[3] = test system: N-methyl D-aspartate (NMDA)-induced seizures; conditions: mouse

## 1-(p-Chlorophenyl)-5-(4-pyridyl)-Δ^2-1,2,3-triazoline [Table IV (2)]
[1]
  ED50, protection against after-discharge seizures and generalized convulsions: 215 ± 61 mg/kg
[2]
  ED50, protection against after-discharge seizures and generalized convulsions: 423 ± 45 mg/kg
[3]
  Protection against NMDA-induced seizures/convulsions: complete protection
